Data: US4132790A
Like-named read-outs stand apart in the source and are kept apart here.

Legend:
Pseudomonas solanacearum = format: in vivo; conditions: scale 0 to 4; for Disease Rating: light infection in controls; for rating: heavy infestation in controls
[1] = tested on: Ascaris lumbricoides var. suum; test: anthelmintic test in infected mice, treated feed; format: in vivo; conditions: Example 13, 0.05 percent in diet, control 2.66
Excerpt: The feeds were utilized as diets for separate groups of mice, five mice per group. About twelve hours after initiation of the feeding, the mice were infected with Ascaris lumbricoides var. suum ova. Another group of five mice was fed the non-medicated feed to serve as a control but was similarly infected at the same time with Ascaris lumbricoides var. suum. All groups were fed their respective feed and maintained under normal laboratory conditions for a period of eight days, at which time all mice were taken off feed. On the ninth day, all mice were sacrified and the lungs examined to determine the presence, and if present, numbers, of lesions of Ascaris lumbricoides var. suum.
Another evaluation was conducted under the procedures reported in Example II, except that the rates were varied. The results were as follows:
In a further evaluation, the monoammonium salts of A16886I and A16886II were separately evaluated for the control of Ascaris lumbricoides var. suum. The evaluations were conducted in accordance with the procedure reported in Example 11 at a concentration in the diet of 0.05 percent.

solubility = format: physicochemical; conditions: monoammonium salt
Xanthomonas vesicatoria = test: field trial, bacterial spot control on tomato plants; format: in vivo; conditions: for Percent Bacterial Spot Control First Reading: one week; for Percent Bacterial Spot Control Second Reading: two weeks
Description: (§1) A mixture of the monoammonium salt of A16886I and the monoammonium salt of A16886II was tested under field conditions for the control of Xanthomonas vesicatoria (bacterial spot) on mature bearing tomato plant. The mixture of the two salts was dispersed in water at a concentration of 100, 200, or 400 parts per million and applied to the plants at the rate of 75 gallons per acre. Application was made with a CO2 sprayer at 50 psi. Plants were sprayed twice, on successive days; after the second spray had dried, all plants were wounded by sand blasting and then within one minute the plants were inoculated with a bacterial inoculum of Xanthomonas vesicatoria. Three days later, a third spray application of the aqueous formulation of A16886 was made. Readings were made one week and two weeks after the last spray treatment. Controls consisted of groups of plants (1) sand blasted and inoculated; (2) sand blasted only; (3) untreated; and (4) treated with streptomycin (on the same three-day spraying schedule, at a concentration of 100, 200, or 400 parts per million of aqueous solution, using a rate of 75 gallons per acre), sand blasted, and inoculated. The results were as set forth in the following table, in which crop injury is reported on a scale of 0-10, with 0 = no injury and 10 = dead plants; and control of bacterial spot is reported on a percentage basis.

tomato plant = test: field trial, crop injury; format: in vivo; conditions: scale 0 = no injury, 10 = dead plants; for Crop Injury Ratings First Reading: one week; for Crop Injury Ratings Second Reading: two weeks
Description: as §1

Row | SMILES | Disease Rating (Pseudomonas solanacearum; Example 7, 10 ppm) | Disease Rating (Pseudomonas solanacearum; Example 7, 100 ppm) | rating (Pseudomonas solanacearum; Example 8, 200 ppm) | rating (Pseudomonas solanacearum; Example 8, 400 ppm) | Average Number of Lung Lesions Per Group [1] | solubility in acetonitrile and other organic solvents (solubility) | solubility in lower alkanols (solubility) | solubility in water (solubility) | Percent Bacterial Spot Control First Reading (Xanthomonas vesicatoria; 100 parts/million) [%] | Percent Bacterial Spot Control Second Reading (Xanthomonas vesicatoria; 100 parts/million) [%] | Percent Bacterial Spot Control First Reading (Xanthomonas vesicatoria; 200 parts/million) [%] | Percent Bacterial Spot Control Second Reading (Xanthomonas vesicatoria; 200 parts/million) [%] | Percent Bacterial Spot Control First Reading (Xanthomonas vesicatoria; 400 parts/million) [%] | Percent Bacterial Spot Control Second Reading (Xanthomonas vesicatoria; 400 parts/million) [%] | Crop Injury Ratings First Reading (tomato plant; 100 parts/million) | Crop Injury Ratings Second Reading (tomato plant; 100 parts/million) | Crop Injury Ratings First Reading (tomato plant; 200 parts/million) | Crop Injury Ratings Second Reading (tomato plant; 200 parts/million) | Crop Injury Ratings First Reading (tomato plant; 400 parts/million) | Crop Injury Ratings Second Reading (tomato plant; 400 parts/million)
1 | COC1(NC(=O)CCCC(N)C(=O)O)C(=O)N2C(C(=O)O)=C(COC(N)=O)CS[C@@H]21 (some centres unmarked) [A16886I, 7-(5-amino-5-carboxyvaleramido)-3-(carbamoyloxymethyl)-7-methoxy-3-cephem-4-carboxylic acid] | 2 | 4 | 4 | 4 | 0.46 | essentially insoluble | slightly soluble | very soluble |  |  |  |  |  |  |  |  |  |  |  | 
2 | NC(=O)OCC1=C(C(=O)O)N2C(=O)C(NC(=O)CCCC(N)C(=O)O)[C@H]2SC1 (some centres unmarked) [A16886II, 7-(5-amino-5-carboxyvaleramido)-3-(carbamoyloxymethyl)-3-cephem-4-carboxylic acid] | 1 | 4 |  |  | 0.20 | essentially insoluble | slightly soluble | very soluble |  |  |  |  |  |  |  |  |  |  |  | 
3 | [H]/N=C(/N)N[C@H]1[C@H](O)[C@@H](O)[C@H](O[C@@H]2O[C@@H](C)[C@](O)(C=O)[C@H]2O[C@@H]2O[C@@H](CO)[C@H](O)[C@@H](O)[C@@H]2NC)[C@@H](N/C(N)=N\[H])[C@@H]1O [Streptomycin] |  |  |  |  |  |  |  |  | 83 | 57 | 81 | 37 | 83 | 59 | 0 | 0 | 0 | 0 | 0 | 0
